Source: article PMC8286840, “Identifying SARS-CoV-2 antiviral compounds by screening for small molecule inhibitors of Nsp3 papain-like protease” (Biochemical Journal, 2021)
Counter-ions that a name gives are not always drawn. Like-named read-outs stand apart in the source and are kept apart here. Where a SMILES comes first, the peptide text is derived from it. [ ]: non-standard residue; d: D form. The star is where a group is joined. Dolaproine = CO[C@@H]([C@@H]1CCCN1)[C@@H](C)C(=O)O; Hexanoyl(6-maleimido) = O=C1C=CC(=O)N1CCCCCC(=O)*; Dil = CC[C@H](C)[C@H](NC)[C@@H](CC(=O)O)OC; NMeV = CN[C@H](C(=O)O)C(C)C

Key:
[1] = target: T1, SARS-CoV-2 PLpro (nsp3 1564–1878) (Severe acute respiratory syndrome coronavirus 2, UniProt P0DTD1); test: biochemical; set-up: FRET-quenched peptide (Pro3) cleavage by PLpro, 10 min pre-incubation, slope over 20 min, normalised to no-compound control; conditions: low concentration screen, read-out: % of control remaining
[2] = target: T1, SARS-CoV-2 PLpro (nsp3 1564–1878); test: biochemical; set-up: FRET-quenched peptide (Pro3) cleavage by PLpro, 10 min pre-incubation, slope over 20 min, normalised to no-compound control; conditions: high concentration screen, read-out: % of control remaining

Fc1ccc(CN(C2=NCCN2)c2c(Cl)cccc2Cl)cc1 [IMID-4F hydrochloride]
remaining activity at 1.25 µM ([1]; Well no.=718): 96.3%
remaining activity at 3.75 µM ([2]; Well no.=718): 96.8%

CCCCC(=O)O[C@H]1CC[C@H]2[C@@H]3CCc4cc(O)ccc4[C@H]3CC[C@]12C [Estradiol valerate]
remaining activity at 1.25 µM ([1]; Well no.=5365): 95.5%
remaining activity at 3.75 µM ([2]; Well no.=5365): 99.5%

Fc1ccc(C(OCCCc2cnc[nH]2)c2ccc(F)cc2)cc1 [3-(1H-Imidazol-4-yl)propyl di(p-fluorophenyl)methyl ether hydrochloride]
remaining activity at 1.25 µM ([1]; Well no.=1019): 93.6%
remaining activity at 3.75 µM ([2]; Well no.=1019): 95.3%

CC1=C(/C=C/C(C)=C/C=C/C(C)=C/C=O)C(C)(C)CCC1 [All-trans-retinal]
remaining activity at 1.25 µM ([1]; Well no.=7443): 102%
remaining activity at 3.75 µM ([2]; Well no.=7443): 102%

CN[C@@H]1C[C@H]2O[C@@](C)([C@@H]1OC)n1c3ccccc3c3c4c(c5c6ccccc6n2c5c31)C(=O)NC4 [Staurosporine, Streptomyces sp.]
remaining activity at 1.25 µM ([1]; Well no.=2656): 94.8%
remaining activity at 1.25 µM ([1]; Well no.=2661): 89.3%
remaining activity at 3.75 µM ([2]; Well no.=2656): 95%
remaining activity at 3.75 µM ([2]; Well no.=2661): 84.8%

OC[C@H]1O[C@@H](c2ccc(Cl)c(Cc3ccc(O[C@H]4CCOC4)cc3)c2)[C@H](O)[C@@H](O)[C@@H]1O [Empagliflozin (BI 10773)]
remaining activity at 1.25 µM ([1]; Well no.=8724): 98.6%
remaining activity at 3.75 µM ([2]; Well no.=8724): 91.3%

NC(=O)c1ccc(-c2nc(-c3ccccn3)c(-c3ccc4c(c3)OCO4)[nH]2)cc1 [SB 431542 - 4-[4-(1,3-benzodioxol-5-yl)-5-(2-pyridinyl)-1H-imidazol-2-yl]benzamide]
remaining activity at 1.25 µM ([1]; Well no.=2440): 106%
remaining activity at 3.75 µM ([2]; Well no.=2440): 107%

CC(C)C[C@H](NC(=O)[C@@H](Cc1c[nH]c2ccccc12)NC(=O)[C@H](Cc1ccc(O)cc1)NC(=O)[C@H](CO)NC(=O)[C@H](Cc1c[nH]c2ccccc12)NC(=O)[C@H](Cc1c[nH]cn1)NC(=O)[C@@H]1CCC(=O)N1)C(=O)N[C@@H](CCCNC(=N)N)C(=O)N1CCC[C@H]1C(=O)NCC(N)=O [Triptorelin]
remaining activity at 1.25 µM ([1]; Well no.=1985): 100%
remaining activity at 3.75 µM ([2]; Well no.=1985): 101%

CC[C@H](C)[C@@H]([C@@H](CC(=O)N1CCC[C@H]1[C@H](OC)[C@@H](C)C(=O)N[C@@H](Cc1ccccc1)C(=O)O)OC)N(C)C(=O)[C@@H](NC(=O)[C@H](C(C)C)N(C)C(=O)CCCCCN1C(=O)C=CC1=O)C(C)C [McMMAF] ({Hexanoyl(6-maleimido)}-[NMeV]V[Dil][Dolaproine]F-OH)
remaining activity at 1.25 µM ([1]; Well no.=7742): 97.3%
remaining activity at 3.75 µM ([2]; Well no.=7742): 101%

CCOC(=O)c1c(C)n(C)c2ccc(O)cc12 [Mecarbinate]
remaining activity at 1.25 µM ([1]; Well no.=4756): 98.2%
remaining activity at 3.75 µM ([2]; Well no.=4756): 95.8%

CCCCC[C@H](O)/C=C/C=C/C=C/[C@H](O)C/C=C\CCCC(=O)O [8(R),15(S)-DIHETE all trans]
remaining activity at 1.25 µM ([1]; Well no.=4377): 102%
remaining activity at 3.75 µM ([2]; Well no.=4377): 105%

O=C(O)/C=C/C(O)c1ccc(Cl)cc1 (centres unmarked) [NCS-356]
remaining activity at 1.25 µM ([1]; Well no.=807): 102%
remaining activity at 3.75 µM ([2]; Well no.=807): 101%

CC[N+](C)(C)c1cccc(O)c1 [Edrophonium chloride]
remaining activity at 1.25 µM ([1]; Well no.=555): 99.7%
remaining activity at 3.75 µM ([2]; Well no.=555): 100%

CCN1C[C@]2(C)CC[C@H](O)[C@]34C1[C@@H](C[C@H]23)[C@@]1(O)C[C@H](OC)[C@H]2C[C@@H]4[C@@H]1[C@H]2O [Karakoline]
remaining activity at 1.25 µM ([1]; Well no.=831): 102%
remaining activity at 1.25 µM ([1]; Well no.=3157): 111%
remaining activity at 3.75 µM ([2]; Well no.=831): 99.5%
remaining activity at 3.75 µM ([2]; Well no.=3157): 103%

Cc1cc(C=C2C(=O)C=CC2=O)cc(C)c1O [TX-1918]
remaining activity at 1.25 µM ([1]; Well no.=2677): 96.7%
remaining activity at 3.75 µM ([2]; Well no.=2677): 98.1%

C1CCc2nnnn2CC1 [Pentylenetetrazole]
remaining activity at 1.25 µM ([1]; Well no.=1054): 97.5%
remaining activity at 3.75 µM ([2]; Well no.=1054): 99.6%

O=C1[C@H](CC[C@H](O)c2ccc(F)cc2)[C@@H](c2ccc(O)cc2)N1c1ccc(F)cc1 [Ezetimibe]
remaining activity at 1.25 µM ([1]; Well no.=8428): 91.6%
remaining activity at 3.75 µM ([2]; Well no.=8428): 89.1%

O=S(=O)(NCCNC/C=C/c1ccc(Br)cc1)c1cccc2cnccc12 [H 89 dihydrochloride - N-[2-[[3-(4-Bromophenyl)-2-propenyl]amino]ethyl]-5-isoquinolinesulfonamide dihydrochloride]
remaining activity at 1.25 µM ([1]; Well no.=2636): 95.6%
remaining activity at 3.75 µM ([2]; Well no.=2636): 99.1%

O=C(O)C(O)Cc1ccccc1 (racemic) [DL-3-Phenyllactic acid]
remaining activity at 1.25 µM ([1]; Well no.=7171): 102%
remaining activity at 3.75 µM ([2]; Well no.=7171): 99.8%

O=C(Nc1ccncc1)C(=O)c1cn(Cc2ccc(Cl)cc2)c2ccccc12 [Indibulin]
remaining activity at 1.25 µM ([1]; Well no.=6784): 98.6%
remaining activity at 3.75 µM ([2]; Well no.=6784): 98.9%

O=c1ccc2ccc(O)c(O)c2o1 [7,8-dihydroxy-2H-chromen-2-one]
remaining activity at 1.25 µM ([1]; Well no.=5782): 105%
remaining activity at 3.75 µM ([2]; Well no.=5782): 108%

C=C[C@]1(C)C[C@@H](OC(=O)CO)[C@]2(C)[C@H](C)CC[C@]3(CCC(=O)[C@H]32)[C@@H](C)[C@@H]1O [(3aR,4R,5R,7S,8S,9R,9aS,12R)-8-hydroxy-4,7,9,12-tetramethyl-3-oxo-7-vinyldecahydro-4,9a-propanocyclopenta[8]annulen-5-yl 2-hydroxyacetate]
remaining activity at 1.25 µM ([1]; Well no.=5764): 97.1%
remaining activity at 3.75 µM ([2]; Well no.=5764): 97.7%

O=C(O)C(Cc1c[nH]c2ccccc12)N1C(=O)c2ccccc2C1=O (centres unmarked) [RG108]
remaining activity at 1.25 µM ([1]; Well no.=4791): 103%
remaining activity at 1.25 µM ([1]; Well no.=8370): 88.9%
remaining activity at 3.75 µM ([2]; Well no.=4791): 104%
remaining activity at 3.75 µM ([2]; Well no.=8370): 85.1%

C[N+](C)(C)CCOC(=O)CCC(=O)OCC[N+](C)(C)C [Succinylcholine]
remaining activity at 1.25 µM ([1]; Well no.=2294): 90.2%
remaining activity at 3.75 µM ([2]; Well no.=2294): 95.9%

Cc1onc(-c2c(Cl)cccc2Cl)c1C(=O)N[C@@H]1C(=O)N2[C@@H]1SC(C)(C)[C@@H]2C(=O)O [Dicloxacillin Sodium]
remaining activity at 1.25 µM ([1]; Well no.=5360): 90.3%
remaining activity at 3.75 µM ([2]; Well no.=5360): 89.6%

CC(C[N+](C)(C)C)OC(N)=O (centres unmarked) [Bethanechol (chloride)]
remaining activity at 1.25 µM ([1]; Well no.=7565): 99.8%
remaining activity at 3.75 µM ([2]; Well no.=7565): 92.1%

c1ccc(C2CN3CCSC3=N2)cc1 (centres unmarked) [Tetramisole hydrochloride]
remaining activity at 1.25 µM ([1]; Well no.=1521): 99.3%
remaining activity at 3.75 µM ([2]; Well no.=1521): 100%

COc1ccccc1Oc1c(NS(=O)(=O)c2ccc(C(C)(C)C)cc2)nc(-c2ncccn2)nc1OCCO [Bosentan]
remaining activity at 1.25 µM ([1]; Well no.=2246): 93.3%
remaining activity at 1.25 µM ([1]; Well no.=7575): 98.7%
remaining activity at 3.75 µM ([2]; Well no.=2246): 95%
remaining activity at 3.75 µM ([2]; Well no.=7575): 96.3%

CO[C@@H]1COCC[C@@H]1N[C@@H]1CC[C@@](C(=O)N2CCc3ncc(C(F)(F)F)cc3C2)(C(C)C)C1 [MK-0812 (Succinate)]
remaining activity at 1.25 µM ([1]; Well no.=8321): 97.5%
remaining activity at 3.75 µM ([2]; Well no.=8321): 97.9%

Nc1nc2[nH]c(=O)cnc2c(=O)[nH]1 [Isoxanthopterin]
remaining activity at 1.25 µM ([1]; Well no.=1109): 96.8%
remaining activity at 3.75 µM ([2]; Well no.=1109): 100%
